According to PubChem BioAssay AID248 (DTP/NCI, 2004):
“And” between values parts separate entries of the source, which are not always exact repeats. Equal entries are not always repeated. Inconclusive results and toxic doses are left out.

Test system: L1210 leukemia ip in BDF1 mice, survival T/C
Test: NCI In Vivo Anticancer Drug Screen. Data for tumor model L1210 Leukemia (intraperitoneal) in B6D2F1 (BDF1) mice
Conditions: endpoint: mean survival time, higher = longer survival
Method in brief: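 Tumor was transplanted into mice, which were then dosed with test compound or vehicle alone. Survival was recorded for each group, and the treated figure was expressed relative to the control figure.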

[1] = dose: 400.0 mg/kg/injection, schedule: Q01DX001 (ip), vehicle: saline
[2] = dose: 100.0 mg/kg/injection, schedule: Q01DX009 (ip), vehicle: Klucel (hydroxypropylcellulose) (HPC)
[3] = dose: 200.0 mg/kg/injection, schedule: Q01DX009 (ip), vehicle: Klucel (hydroxypropylcellulose) (HPC)
[4] = dose: 400.0 mg/kg/injection, schedule: Q01DX009 (ip), vehicle: Klucel (hydroxypropylcellulose) (HPC)

SMILES: CCN(CC)CCNc1ccc(C)c2sc3ccccc3c(=O)c12 (tested in a mixture with another compound)
- T/C (dose: 6.0 mg/kg/injection, schedule: Q01DX009 (ip), vehicle: carboxymethylcellulose (CMC)): 102 % of control
- T/C (dose: 12.0 mg/kg/injection, schedule: Q01DX009 (ip), vehicle: carboxymethylcellulose (CMC)): 98 % of control
- T/C (dose: 17.0 mg/kg/injection, schedule: Q01DX015 (ip), vehicle: saline): 102 % of control
- T/C (dose: 25.0 mg/kg/injection, schedule: Q01DX009 (ip), vehicle: carboxymethylcellulose (CMC)): 109 % of control
- T/C (dose: 26.0 mg/kg/injection, schedule: Q01DX015 (ip), vehicle: carboxymethylcellulose (CMC)): 108 % of control
- T/C (dose: 26.0 mg/kg/injection, schedule: Q01DX015 (ip), vehicle: saline): 101 % of control
- T/C (dose: 35.0 mg/kg/injection, schedule: Q01DX009 (ip), vehicle: saline): 102 % of control
- T/C (dose: 39.0 mg/kg/injection, schedule: Q01DX015 (ip), vehicle: carboxymethylcellulose (CMC)): 110 % of control
- T/C (dose: 40.0 mg/kg/injection, schedule: Q01DX015 (ip), vehicle: saline): 113 % of control and 118 % of control
- T/C (dose: 59.0 mg/kg/injection, schedule: Q01DX015 (ip), vehicle: carboxymethylcellulose (CMC)): 116 % of control
- T/C (dose: 75.0 mg/kg/injection, schedule: Q01DX009 (ip), vehicle: saline): 104 % of control
- T/C (dose: 89.0 mg/kg/injection, schedule: Q01DX015 (ip), vehicle: saline): 202 % of control
- T/C (dose: 133.0 mg/kg/injection, schedule: Q01DX009 (ip), vehicle: carboxymethylcellulose (CMC)): 123 % of control
- T/C (dose: 175.0 mg/kg/injection, schedule: Q01DX001 (ip), vehicle: saline): 100 % of control
- T/C (dose: 200.0 mg/kg/injection, schedule: Q01DX015 (ip), vehicle: saline): 112 % of control
- T/C (dose: 265.0 mg/kg/injection, schedule: Q01DX001 (ip), vehicle: saline): 105 % of control
- T/C (dose: 300.0 mg/kg/injection, schedule: Q01DX015 (ip), vehicle: carboxymethylcellulose (CMC)): 91 % of control
- T/C [1]: 122 % of control

SMILES: Clc1ccc(C=NCCN=Cc2ccc(Cl)c(Cl)c2)cc1Cl
- T/C (dose: 25.0 mg/kg/injection, schedule: Q01DX009 (ip), vehicle: saline with Tween-80): 92 % of control
- T/C (dose: 50.0 mg/kg/injection, schedule: Q01DX009 (ip), vehicle: saline with Tween-80): 90 % of control
- T/C (dose: 100.0 mg/kg/injection, schedule: Q01DX009 (ip), vehicle: saline with Tween-80): 103 % of control
- T/C (dose: 100.0 mg/kg/injection, schedule: Q04DX003 (ip), vehicle: saline with Tween-80): 91 % of control
- T/C (dose: 200.0 mg/kg/injection, schedule: Q01DX009 (ip), vehicle: saline with Tween-80): 98 % of control
- T/C (dose: 200.0 mg/kg/injection, schedule: Q04DX003 (ip), vehicle: saline with Tween-80): 91 % of control
- T/C (dose: 400.0 mg/kg/injection, schedule: Q01DX009 (ip), vehicle: saline with Tween-80): 101 % of control
- T/C (dose: 400.0 mg/kg/injection, schedule: Q04DX003 (ip), vehicle: saline with Tween-80): 95 % of control

SMILES: Cc1ccc(Cl)cc1NC(=O)Oc1ccc(C(C)(C)C)cc1Br
- T/C [2]: 91 % of control
- T/C [3]: 100 % of control
- T/C [4]: 108 % of control

SMILES: O=[N+]([O-])c1ccc(N/N=C/c2ccnc3ccccc23)cc1
- T/C [2]: 93 % of control
- T/C [3]: 91 % of control
- T/C [4]: 91 % of control

SMILES: CCCCN1CCN(CCCC)C1=O
- T/C (dose: 100.0 mg/kg/injection, schedule: Q04DX002 (ip), vehicle: Klucel (hydroxypropylcellulose) (HPC)): 90 % of control
- T/C (dose: 200.0 mg/kg/injection, schedule: Q04DX002 (ip), vehicle: Klucel (hydroxypropylcellulose) (HPC)): 90 % of control

SMILES: Cc1ccc(N(C)C(=O)c2ccccc2S)cc1
- T/C (dose: 100.0 mg/kg/injection, schedule: Q01DX001 (ip), vehicle: saline): 105 % of control
- T/C (dose: 200.0 mg/kg/injection, schedule: Q01DX001 (ip), vehicle: saline): 105 % of control
- T/C [1]: 109 % of control

SMILES: COc1ccc2ccccc2c1-c1c([N+](=O)[O-])ccc2ccccc12
- T/C (dose: 12.5 mg/kg/injection, schedule: Q04DX002 (ip), vehicle: saline with Tween-80): 97 % of control
- T/C (dose: 25.0 mg/kg/injection, schedule: Q04DX002 (ip), vehicle: saline with Tween-80): 90 % of control
- T/C (dose: 50.0 mg/kg/injection, schedule: Q04DX002 (ip), vehicle: saline with Tween-80): 87 % of control
- T/C (dose: 100.0 mg/kg/injection, schedule: Q04DX002 (ip), vehicle: saline with Tween-80): 93 % of control

SMILES: N#CCN(CC#N)CCCN(CC#N)CC#N
- T/C (dose: 25.0 mg/kg/injection, schedule: Q01DX001 (ip), vehicle: saline with Tween-80): 96 % of control
- T/C (dose: 50.0 mg/kg/injection, schedule: Q01DX001 (ip), vehicle: saline with Tween-80): 102 % of control
- T/C (dose: 200.0 mg/kg/injection, schedule: Q01DX001 (ip), vehicle: saline with Tween-80): 102 % of control and 90 % of control
- T/C (dose: 400.0 mg/kg/injection, schedule: Q01DX001 (ip), vehicle: saline with Tween-80): 93 % of control

SMILES: N#Cc1cc2c3ccccc3ncc2c2ccccc12
- T/C (dose: 100.0 mg/kg/injection, schedule: Q04DX003 (ip), vehicle: Klucel (hydroxypropylcellulose) (HPC)): 91 % of control
- T/C [3]: 96 % of control
- T/C (dose: 200.0 mg/kg/injection, schedule: Q04DX003 (ip), vehicle: Klucel (hydroxypropylcellulose) (HPC)): 89 % of control
- T/C (dose: 400.0 mg/kg/injection, schedule: Q04DX003 (ip), vehicle: Klucel (hydroxypropylcellulose) (HPC)): 89 % of control
